The target of data set [1] is T1, D3R (Rattus norvegicus, UniProt P19020).
T1 construct: The ventral striatum was isolated by dissection on ice; tissue Innovative research, Inc; host or cells: Sprague–Dawley rat brain: ventral striatal homogenates; frozen brain sections
Description: Competition binding study of [125I]HY-3-24 in rat ventral striatal membranes. The following applies: for fold lower affinity/potency for displacing [125I]HY-3-24 relative to eticlopride: rat ventral striatum. As for the experimental part:
(§1) Frozen rat brains (Sprague–Dawley rat, Male, 6–8 weeks old) were obtained from Innovative research, Inc. (Novi, Michigan, United States). The ventral striatum was isolated by dissection on ice. Cold homogenization buffer (HB, 20 mM Tris–HCl, 5 mM MgCl2, 1 mM EDTA, pH7.5) was added and the tissue homogenized by mortar and pestle on ice. Homogenized tissue was centrifuged at 10,000 × g, 4°C for 30 min. Supernatant was removed and pellet was mixed with cold HB buffer by vortex. This process was repeated two times to get rat ventral striatal homogenates; and protein amount was determined using a BCA protein assay kit. Homogenized tissue homogenates were stored at −80°C until use.
10 μM of (+)-butaclamol was used for determination of non-specific binding. The final reaction volume was 200 μL and the assay mixture was incubated at RT for 60 min. […] The filter was washed with cold buffer (3 times) and counted by gamma counter. The value of Ki was calculated using nonlinear regression analysis by PRISM 9 and the results was presented mean ± SD by three individual experiments.

In data set [2] the target is T1, D3R. Description: D3R and D2R blocking studies of [125I]HY-3-24 in rat striatal homogenates. In kind it is binding. The settings on record: blocker at 2.4 nM, rat striatal membranes, RT 2 h. As for the experimental part: For the D3R and D2R blocking studies, [^125I]HY-3-24 (0.3 nM) was mixed with 100 μg of protein and incubated at RT for 2 h in the presence or absence of 30 nM cold HY-3-24, 100 nM SB-277-011A, 10 nM SB-277-011A, or 2.4 nM L-741,626. [^125I]HY-3-24 bound protein was collected by fast filtration methods (GF/C filter soaked in 1% PEI, Brandel Inc., Maryland, United States) and counted using gamma counter (PerkinElmer, Massachusetts, United States).

The target of another data set is D2 receptors. Details: method as in Kulagowski et al., 1996. The settings on record: ref Kulagowski et al., 1996; read-out: Ki for displacing [3H]spiperone to D2 receptors; cited from earlier work.
Data set [3] deals with hD3R. Details: method as in Yang et al., 2000. The following applies: ref Yang et al., 2000; cited from earlier work.
Data set [4] deals with hD2R. Details: method as in Yang et al., 2000. The settings on record: ref Yang et al., 2000; cited from earlier work.
In data set [5] the target is T2, D3R (Macaca mulatta, UniProt F6U709).
T2 construct: in vitro autoradiography using Sprague–Dawley rat and non-human primate brains; from tissue; host or cells: non-human primate brain sections
T2 sequence (F6U709 1-400): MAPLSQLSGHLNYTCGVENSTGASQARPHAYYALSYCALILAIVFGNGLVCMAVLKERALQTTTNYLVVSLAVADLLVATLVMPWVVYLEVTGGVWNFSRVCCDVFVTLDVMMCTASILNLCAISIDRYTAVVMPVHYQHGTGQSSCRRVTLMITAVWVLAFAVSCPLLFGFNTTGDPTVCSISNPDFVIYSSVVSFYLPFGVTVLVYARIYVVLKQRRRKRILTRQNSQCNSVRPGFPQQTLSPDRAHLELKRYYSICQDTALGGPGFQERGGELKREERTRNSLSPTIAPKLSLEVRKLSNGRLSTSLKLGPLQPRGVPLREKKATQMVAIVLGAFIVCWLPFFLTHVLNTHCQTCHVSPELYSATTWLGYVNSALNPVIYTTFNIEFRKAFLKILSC
Description: In vitro autoradiography, non-human primate brain sections. The data set is classed as binding. The settings on record: rhesus monkey brain sections. As for the experimental part: (§2) Regional brain distribution of [^125I]HY-3-24 binding was determined by in vitro autoradiography using Sprague–Dawley rat and non-human primate brains. A Cryotome (Leica Biosystems, Germany) was used for sectioning frozen brains by coronal and/or sagittal direction, and the thickness of tissue was 10–20 μm. Sectioned slides were stored at −80°C until use. The adjacent brain slides were warmed to RT for 20 min, the slides were incubated with cold reaction buffer (50 mM Tris–HCl, 150 mM NaCl, 1 mM EDTA, pH 7.5) at RT for 10 min, and the buffer was discarded. The slides were then incubated with […] of [^125I]HY-3-24 at RT for 1 h. For non-specific binding, 2 μM of (+)-butaclamol was used. After incubation, the slides were washed with cold buffer (three times) for 2 min, then air dried at RT for 10 min. Radiolabeled brain tissues were exposed to BAS imaging plate (Fujifilm, Tokyo, Japan) for 3 days, and the result was digitized by Typhoon FLA 7000 (GE Healthcare, Illinois, United States) and analyzed by Multi Gauge V3.0. For blocking studies comparing (+)-butaclamol and raclopride, brain slides were initially pretreated with blocking agent (50 nM) for 1 h. prior to the addition of the radioligand (0.3 nM).

Data set [6] deals with T1, D3R. Description: Saturation/equilibrium binding of [125I]HY-3-24 on rat ventral striatum. As for the experimental part: as §1
To confirm saturation time of [^125I]HY-3-24 with prepared membrane, [^125I]HY-3-24 (~0.3 nM) was mixed with 100 μg of membrane and incubated at RT up to 2 h. [^125I]HY-3-24 bound protein was collected by fast filtration methods (CF/C filter, Brandel Inc., Maryland, United States) and counted using gamma counter (PerkinElmer, Massachusetts, United States).
For saturation binding study, [^125I]HY-3-24 (0.001–1.6 nM concentration range) was incubated with 100 μg/100 μL of homogenized protein at RT for 60 min. Non-specific binding was defined the presence of 10 μM (+)-butaclamol, and total reaction volume was 200 μL. The reaction was finished by adding cold buffer (10 mM Tris–HCl, 150 mM NaCl, pH 7.5), and [^125I]HY-3-24 bound protein was filtered by 24-well harvester (Brandel Inc., Maryland, United States) through CF/C filter soaked with 1% PEI, and washed three times with 4 mL cold buffer. The collected filter was counted by gamma counter and data were analyzed by PRISM 9. The values of Bmax and Kd were obtained by three individual experiments.

Data set [7] deals with T1, D3R. Description: In vitro autoradiography, rat brain sections. In kind it is binding. As for the experimental part:
as §2

A short description of data set [8]: Distribution coefficient (LogD7.4), shake-flask. In kind it is physicochemical. The following applies: n-octanol / 0.01 M phosphate buffer pH 7.4, shake-flask, quintuplicate. As for the experimental part:
In a separatory funnel, 10 mL of n-octanol and 20 mL of 0.01 M phosphate buffer (pH 7.4) solution were placed and 5 μL of [^125I]HY-3-24 (700 kBq) was added. The mixture was vigorously shaken for 1 min followed by standing for 20 min to completely separate the layers. Five 1 mL of aliquots were taken from each phase and the radioactivity of each fraction was measured by a Wizard2 Automatic Gamma Counter. LogD7.4 was measured in quintuplicate and calculated as the logarithm of the ratio of radioactivity in organic phase to that in water phase.

Data set [9] addresses hD2R. Details: method as in Kim et al., 2023. The following applies: ref Kim et al., 2023; cited from earlier work.
For data set [10], the target named is hD3R. Details: method as in Kim et al., 2023. The settings on record: ref Kim et al., 2023; cited from earlier work.
The mark [11] stands for this setting: rat ventral striatal homogenates, 0.2–0.3 nM [125I]HY-3-24, RT 60 min, mean ± SD of three experiments, read-out: Ki for inhibiting [125I]HY-3-24 binding.
Setting [12] is: rat brain coronal sections, ~0.3 nM radioligand.

The values below come from PMC11036874, “In vitro characterization of [^125I]HY-3-24, a selective ligand for the dopamine D3 receptor” (Frontiers in Neuroscience, 2024).

Molecules are shown by their SMILES. Like-named read-outs stand apart in the source and are kept apart here.

T1 sequence (P19020 whole entry): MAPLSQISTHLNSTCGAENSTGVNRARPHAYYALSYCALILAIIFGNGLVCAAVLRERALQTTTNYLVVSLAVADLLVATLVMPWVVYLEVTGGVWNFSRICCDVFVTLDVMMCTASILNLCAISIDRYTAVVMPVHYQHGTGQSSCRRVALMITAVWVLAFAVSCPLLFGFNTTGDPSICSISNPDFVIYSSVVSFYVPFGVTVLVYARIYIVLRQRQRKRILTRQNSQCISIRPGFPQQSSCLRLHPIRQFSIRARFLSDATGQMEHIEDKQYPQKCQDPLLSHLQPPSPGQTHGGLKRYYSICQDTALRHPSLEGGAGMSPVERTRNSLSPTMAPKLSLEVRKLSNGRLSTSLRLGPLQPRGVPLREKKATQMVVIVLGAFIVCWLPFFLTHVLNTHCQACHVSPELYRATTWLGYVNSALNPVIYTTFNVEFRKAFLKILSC

As usually defined, the Ki is a measure of affinity in units of concentration, obtained from inhibition or displacement. For the compound `CCCN1CCO[C@@H]2c3cc(O)ccc3CC[C@H]21` [(+)-PHNO], the Ki on D3R [1] (setting [11]) was determined as 1.72 ± 0.46 nM.
With `CCc1cc(Cl)c(OC)c(C(=O)NC[C@@H]2CCCN2CC)c1O` [Eticlopride], at D3R [1], the Ki came out at 0.25 ± 0.02 nM.
In the case of `OC1(c2ccc(Cl)cc2)CCN(Cc2c[nH]c3ccccc23)CC1` [L-741,626], the “displacement of [125I]HY-3-24 binding” value at D3R [2] was “no displacement”. The Ki at D2 receptors is 2.4 nM.
`CCN(CC)CCNC(=O)c1cc(Cl)c(N)cc1OC` [Metoclopramide]: the Ki on hD3R [3] was 27 ± 3 nM; at hD2R [4], 21 ± 1 nM.
As to `CCCN1CCO[C@@H]2c3cc(O)ccc3OC[C@H]21` [PD128907], at D3R [1] (setting [11]), the Ki was 7.65 ± 1.15 nM.
With `CCN1CCC[C@H]1CNC(=O)c1c(O)c(Cl)cc(Cl)c1OC` [Raclopride], the Ki on D3R [1] (setting [11]) was 2.51 ± 0.9 nM. For the same compound, the “fold lower affinity/potency for displacing [125I]HY-3-24 relative to eticlopride” value at D3R [1] is given as 10 fold.
For the compound `CN1CCc2cc(Cl)c(O)cc2[C@@H](c2ccccc2)C1` [SCH23390], the Ki at D3R [1] (setting [11]) was found to be 215 ± 61.7 nM. Further, the “fold lower affinity/potency for displacing [125I]HY-3-24 relative to eticlopride” value on D3R [1] is 1,000 fold.
One may read the Kd as a measure of binding affinity in units of concentration. The logD is the decadic logarithm of the distribution of all forms, ionised or not, between an organic phase and buffer at a given pH. In the case of `CCN(CCCNC(=O)c1ccc(-c2ccncc2)cc1)CCNC(=O)c1cc([125I])cc(OC)c1OC` [[^125I]HY-3-24], the non-specific binding entry on D3R [5] (blocking with 2 μM (+)-butaclamol) was “low level of non-specific binding”. For the same compound, at D3R [5] (~0.1 nM radioligand), the “binding in caudate nucleus (Cd), putamen (Pu), NAc, and ICj” value is given as “high density”. Also, the “percentage of specific binding” value on D3R [6] (rat ventral striatal membranes) was “over 70%”. Further, the “non-specific binding, of total binding” value on D3R [6] (rat ventral striatal membranes, 10 μM (+)-butaclamol) was “less than 10%”. The compound also yielded a Kd on D3R [6] (rat ventral striatal membranes, RT 60 min, three experiments) of 0.34 ± 0.22 nM. Moreover, the Bmax at D3R [6] (rat ventral striatal membranes, fmol/mg of protein, three experiments) was 38.91 ± 2.39 fmol/mg. For the same compound, the “time to binding equilibrium” value on D3R [6] (~0.3 nM radioligand, 100 μg protein, RT, persisted until 2 h) is “about 30 min”. On D3R [7] (setting [12]), the “binding in NAc including ICjM, and ICj” value is listed as “High binding”; the binding in striatum result was “lower amount of binding”. In addition, the “displaceability by (+)-butaclamol and raclopride” value at D3R [7] (rat brain slices, blocking agents 50 nM, radioligand ~0.3 nM) is recorded as “fully displaceable”. In data set [8], this compound returned a logD at 1 min of 2.41 ± 0.01.
Turning to `CCN(CCCNC(=O)c1ccc(-c2ccncc2)cc1)CCNC(=O)c1cc(Br)cc(OC)c1OC` [compound 6], the values for the Ki at hD2R [9] and on hD3R [10] were 107 ± 5 nM and 1.1 ± 0.1 nM, respectively.
